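Tested at 5 concentrations; 48 h exposure; 96-well plates; endpoints linearly interpolated, else capped at highest concentration. Here, GI50 denotes the concentration required for 50% inhibition of growth. The concentration for full growth arrest is given as TGI.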
What was measured:
Assay in all cases: inhibition of tumour cell growth, NCI panel, 48 h
786-0 renal = test system: 786-0 renal
NCI/ADR-RES ovarian = test system: NCI/ADR-RES ovarian
HCT-116 colon = test system: HCT-116 colon
A549 NSCLC = test system: A549 NSCLC
MDA-MB-231 breast = test system: MDA-MB-231 breast
HT29 colon = test system: HT29 colon
MALME-3M melanoma = test system: MALME-3M melanoma
SK-OV-3 ovarian = test system: SK-OV-3 ovarian
SNB-19 CNS = test system: SNB-19 CNS
NCI-H226 lung = test system: NCI-H226 lung
K-562 leukemia = test system: K-562 leukemia
UACC-62 melanoma = test system: UACC-62 melanoma
SN12C renal = test system: SN12C renal
BT-549 breast = test system: BT-549 breast
SF-295 CNS = test system: SF-295 CNS
EKVX NSCLC = test system: EKVX NSCLC
MCF7 breast = test system: MCF7 breast
HCT-15 colon = test system: HCT-15 colon
SF-268 CNS = test system: SF-268 CNS
ACHN renal = test system: ACHN renal
MOLT-4 leukemia = test system: MOLT-4 leukemia
CAKI-1 renal = test system: CAKI-1 renal
SF-539 CNS = test system: SF-539 CNS
RPMI-8226 leukemia = test system: RPMI-8226 leukemia
SK-MEL-28 melanoma = test system: SK-MEL-28 melanoma
NCI-H460 lung = test system: NCI-H460 lung
A498 renal = test system: A498 renal
HOP-92 NSCLC = test system: HOP-92 NSCLC
OVCAR-8 ovarian = test system: OVCAR-8 ovarian
T-47D breast = test system: T-47D breast
COLO 205 colon = test system: COLO 205 colon
SR leukemia = test system: SR leukemia
PC-3 prostate = test system: PC-3 prostate
OVCAR-3 ovarian = test system: OVCAR-3 ovarian
UO-31 renal = test system: UO-31 renal
KM12 colon = test system: KM12 colon
HL-60(TB) leukemia = test system: HL-60(TB) leukemia
U251 CNS = test system: U251 CNS
SK-MEL-2 melanoma = test system: SK-MEL-2 melanoma
HS 578T breast = test system: HS 578T breast
OVCAR-5 ovarian = test system: OVCAR-5 ovarian
LOX IMVI melanoma = test system: LOX IMVI melanoma
RXF 393 renal = test system: RXF 393 renal
M14 melanoma = test system: M14 melanoma
UACC-257 melanoma = test system: UACC-257 melanoma
CCRF-CEM leukemia = test system: CCRF-CEM leukemia
DU-145 prostate = test system: DU-145 prostate
NCI-H522 lung = test system: NCI-H522 lung
HCC-2998 colon = test system: HCC-2998 colon
SNB-75 CNS = test system: SNB-75 CNS
SK-MEL-5 melanoma = test system: SK-MEL-5 melanoma
NCI-H23 lung = test system: NCI-H23 lung
HOP-62 NSCLC = test system: HOP-62 NSCLC
IGROV1 ovarian = test system: IGROV1 ovarian
SW-620 colon = test system: SW-620 colon
OVCAR-4 ovarian = test system: OVCAR-4 ovarian
TK-10 renal = test system: TK-10 renal

## O=C(N/N=C/c1ccco1)c1[nH]c2ccc(Br)cc2c1-c1ccccc1
786-0 renal
  GI50: 411 nM
  TGI: 12600 nM
NCI/ADR-RES ovarian
  GI50: 187 nM
  TGI: 2800 nM
HCT-116 colon
  GI50: 106 nM
  TGI: 10700 nM
A549 NSCLC
  GI50: 191 nM
  TGI: 14300 nM
MDA-MB-231 breast
  GI50: 292 nM
  TGI: 2970 nM
HT29 colon
  GI50: 143 nM
  TGI: 1230 nM
MALME-3M melanoma
  GI50: 211 nM
  TGI: 21300 nM
SK-OV-3 ovarian
  GI50: 403 nM
  TGI: 16900 nM
SNB-19 CNS
  GI50: 252 nM
  TGI: 14700 nM
NCI-H226 lung
  GI50: 327 nM
  TGI: 10400 nM
K-562 leukemia
  GI50: 48.5 nM
  TGI: 11900 nM
UACC-62 melanoma
  GI50: 72.4 nM
  TGI: 13600 nM
SN12C renal
  GI50: 201 nM
  TGI: 4530 nM
BT-549 breast
  GI50: 220 nM
  TGI: 1190 nM
SF-295 CNS
  GI50: 46.4 nM
  TGI: 11100 nM
EKVX NSCLC
  GI50: 1300 nM
  TGI: 27300 nM
MCF7 breast
  GI50: 67.3 nM
  TGI: 11100 nM
HCT-15 colon
  GI50: 85.9 nM
  TGI: 11800 nM
SF-268 CNS
  GI50: 975 nM
  TGI: 27900 nM
ACHN renal
  GI50: 303 nM
  TGI: 14700 nM
MOLT-4 leukemia
  GI50: 265 nM
  TGI: 11700 nM
CAKI-1 renal
  GI50: 251 nM
  TGI: 16500 nM
SF-539 CNS
  GI50: 91 nM
  TGI: 482 nM
RPMI-8226 leukemia
  GI50: 200 nM
  TGI: > 26900 nM
SK-MEL-28 melanoma
  GI50: 735 nM
  TGI: 21100 nM
NCI-H460 lung
  GI50: 147 nM
  TGI: 1700 nM
A498 renal
  GI50: 8760 nM
  TGI: 25400 nM
HOP-92 NSCLC
  GI50: 763 nM
  TGI: 13200 nM
OVCAR-8 ovarian
  GI50: 162 nM
  TGI: 3230 nM
T-47D breast
  GI50: 1410 nM
  TGI: 26900 nM
COLO 205 colon
  GI50: 226 nM
  TGI: 695 nM
SR leukemia
  GI50: 52.7 nM
  TGI: 5100 nM
PC-3 prostate
  GI50: 309 nM
  TGI: 15900 nM
OVCAR-3 ovarian
  GI50: 281 nM
  TGI: 14900 nM
UO-31 renal
  GI50: 267 nM
  TGI: 15400 nM
KM12 colon
  GI50: 281 nM
  TGI: 12700 nM
HL-60(TB) leukemia
  GI50: 135 nM
  TGI: 503 nM
U251 CNS
  GI50: 192 nM
  TGI: 11800 nM
SK-MEL-2 melanoma
  GI50: 302 nM
  TGI: 22400 nM
HS 578T breast
  GI50: 234 nM
  TGI: 29500 nM
OVCAR-5 ovarian
  GI50: 320 nM
  TGI: 17600 nM
LOX IMVI melanoma
  GI50: 89.9 nM
  TGI: 11700 nM
RXF 393 renal
  GI50: 348 nM
  TGI: 16900 nM
M14 melanoma
  GI50: 165 nM
  TGI: 21900 nM
UACC-257 melanoma
  GI50: 437 nM
  TGI: 17300 nM
CCRF-CEM leukemia
  GI50: 238 nM
  TGI: 27100 nM
DU-145 prostate
  GI50: 309 nM
  TGI: 12000 nM
NCI-H522 lung
  GI50: 42.5 nM
  TGI: 225 nM
HCC-2998 colon
  GI50: 240 nM
  TGI: 9410 nM
SNB-75 CNS
  GI50: 177 nM
  TGI: 5770 nM
SK-MEL-5 melanoma
  GI50: 133 nM
  TGI: 644 nM
NCI-H23 lung
  GI50: 403 nM
  TGI: 14200 nM
HOP-62 NSCLC
  GI50: 326 nM
  TGI: 15400 nM
IGROV1 ovarian
  GI50: 212 nM
  TGI: 12800 nM
SW-620 colon
  GI50: 105 nM
  TGI: 17300 nM
OVCAR-4 ovarian
  GI50: 988 nM
  TGI: 26200 nM
TK-10 renal
  GI50: 1610 nM
  TGI: 18000 nM

From PubChem BioAssay (NCI)
